Experimental data as given in patent publication US12616750B2, “Combination therapy utilizing DNA alkylating agents and ATR inhibitors” (Merck Patent GmbH, priority 2018, dated 2026).

Experiments:
NCI-N87 xenografts = assay: Xenograft experiment, therapeutic efficacy; conditions: single agent: αHER2-6 1.0 mg/kg i.v. single dose; ATRi 50 mg/kg per oral once daily 14 d
Protocol: Female H2d Rag2 mice, 6-8 weeks old, were obtained from Taconic Biosciences, LLC. A xenograft was established by harvesting NCI-N87 cells from cell culture, mixing the cells 1:1 with Matrigel and injecting 2.5×10^6 cells subcutaneously into the flank of the mice. The tumor volume was assessed twice weekly by length measurements in two dimensions using calipers. The volume was calculated following eq. 3 where the length L is the longest tumor length and W is the shortest tumor length.
After an initial tumor growth phase, mice were randomized and assigned to treatment groups comprising 10 animals. The initial tumor volume amounted to approximately 100 mm^3 when treatment started. Vehicle treated mice obtained a solution of 0.5% Methocel, 0.25% Tween-20 in water. […] Mice were weighted twice weekly to assess the body-weight during the treatment period. The criteria to terminate the study for single animals were skin ulcerations, tumor length exceeding 15 mm or tumor exceeding 10% of the body weight. In addition, body weight loss was a criterium for termination if body weight loss exceeded 20% accompanied with a haggard appearance, body weight loss exceeded 20% on three successive days or if body weight loss exceeded 25% of the adjusted body weight.

SK-BR-3 cells = assay: MNED curve-shift assay; type: cell-based
Excerpt: (§1) Therefore a curve-shift assay system was established. In a first step, a dose-response curve (DRC) is obtained by treating a certain cell line with an inhibitor. The maximum non-efficacious dose (MNED) can be derived from this DRC. MNED is the highest dose, that can be added to a certain cell line without affecting the viability. The activity of the ADC is confirmed in a separate experiment. Finally, a combination experiment can be conducted. Therefore, the ADC and ADC plus inhibitor at MNED are added to the cells. The inhibitor is tested in parallel at MNED as a control. Due to the application of inhibitor at MNED, no reduction in cell viability caused by the inhibitor is expected. Three outcomes are possible: 1) The combination of ADC plus inhibitor is equipotent as the ADC only. […] Such a result would be interpreted as depotentiation. […] In this case, the potency of the ADC is potentiated.
(§2) Potentiation effects are expressed as dose-reduction indices (DRI), which can be calculated by dividing the IC50-value of ADC by the IC50-value of ADC plus inhibitor according to eq. 1
(§3) Curve-shift assays were conducted as follows: The cell number and viability was determined using ViCell™-XR (Beckman Coulter) and seeded in opague 96-well plate (10k viable cells/well). After seeding, the plate was incubated (37° C., 5% C02) in a humid chamber overnight. Compounds were diluted in the appropriate medium, added to the cells and the plate was incubated (37° C., 5% CO2, 6 d) in a humid chamber. After 30 min equilibration at room temperature, CellTiter-Glo reagent (Promega) was added. After the plate was shaken (3 min, 550 rpm, rt) it was incubated (10 min, rt) and luminescence was read on a synergy 4 plate reader (BioTek). Evaluation was performed using GraphPad Prism version 6.05. Therefor luminescence values were normalized to luminescence values of non-treated cells and dose-response was fitted with 4-point logistic fit.
(§4) The determination of dose-reduction indices (DRI) in a maximum non-efficacious dose (MNED) curve-shift assay is a 3-step process as depicted exemplarily in FIG. 13. The cytotoxicity of the ADC is confirmed in a cell viability assay in an initial step. […] In the second step. the MNED of the ATRi was determined. […] In order to obtain a full […] for the combination, the starting concentration of the ADC was lowered compared to the experiment in step 1.

MDA-MB-468 cells [1] = assay: MNED curve-shift assay; type: cell-based
Excerpt: as §1, §2, §3, §4

MDA-MB-361 cells = assay: MNED curve-shift assay; type: cell-based
Excerpt: as §1, §2, §3, §4

JIMT-1 cells = assay: MNED curve-shift assay; type: cell-based
Excerpt: as §1, §2, §3, §4

SK-OV-3 cells = assay: MNED curve-shift assay; type: cell-based
Excerpt: as §1, §2, §3, §4

BT-474 cells = assay: MNED curve-shift assay; type: cell-based
Excerpt: as §1, §2, §3, §4

HCC-1954 cells [2] = assay: MNED curve-shift assay; type: cell-based; conditions: HCC-1954
Excerpt: as §1, §2, §3, §4

Calu-3 cells = assay: MNED curve-shift assay; type: cell-based
Excerpt: as §1, §2, §3, §4

MDA-MB-453 cells [3] = assay: MNED curve-shift assay; type: cell-based
Excerpt: as §1, §2, §3, §4

MDA-MB-468 cells [4] = assay: Dose-matrix combination assay (synergy score, Loewe model); type: cell-based; conditions: combination with DUBA; MDA-MB-468, 6 d; S ± SD; cutoff ±1
Protocol: (§5) Dose-matrix combination assays were performed as described above, but performed in opague 384-well plates (2k viable cells/well). Compounds were added using Tecan D300e liquid. Protein solutions were supplemented with 0.3% Tween-20 (final) and diluted to 1 μM. All wells were normalized to the maximum amount of DMSO (maximum 0.4%) or Tween-20 added. […] Luminescence values were normalized to luminescence of non-treated cells and dose-response was fitted using Smart Fit. Synergy scores were calculated using LOEWE synergy model.
(§6) The screening of synergistic drug combinations can be accomplished by performing a dose-matrix assay. Therefore, two drugs are serial diluted and mixed at every dose level, yielding a dose-matrix. The drug combination can be additive if the effects of the combination are identical to the added effects of the single agents. However, the effects of the combination might also be stronger than the activity of the single agents. This scenario is termed synergy, whereas weaker combination effects compared to the single agents are termed antagonism. A dose-matrix assay is depicted schematically in FIG. 2 which illustrates the outcomes of a dose-matrix assay: additivity, antagonism and synergy.
(§7) The screening was conducted by serial diluting the duocarmycin derivative DUBA (10) and the DDR inhibitors. […] DUBA was combined in a dose-matrix assay with hycanthone. The cell viability was measured after 6 d of treatment using the CellTiter-Glo assay kit. The signals of the cell viability assay were normalized to untreated cells and fitted. […] By subtracting the modeled data from the fitted data, an excess matrix was generated. The excess matrix can be considered as a visualization of the differences between model and actual data which also highlights spots of either high synergy or antagonism. The quantification of the combination effects, however, was performed by calculating synergy scores. […] Besides synergy score, the potency of the drugs in monotherapy was obtained from these experiments. […] The potency was obtained from this dose-response curve.
(§8) The scattering of S was determined in a sham control experiment to define a cutoff for classifying a combination as truly synergistic or antagonistic. Thus seven different compounds were combined with itself on four different cell lines and the three-σ confidence interval was calculated around the mean of the measurement. […] For the sake of convenience, the cutoff was set to a value of ±1.
(§9) Synergy scores (S) were obtained from the combination experiments that indicated additivity […] if model and actual response were equal. […] The magnitude of the score determined the extent of the combination effects.

HCC-1954 cells [5] = assay: as above; type: cell-based; conditions: combination with DUBA
Protocol: as §5, §6, §7, §8, §9

[6] = Xenograft experiment, tolerability (body weight); set-up: species or system H2d Rag2 mice; conditions: mouse, in vivo
Protocol: The tolerability of the anti-cancer treatment was assessed considering the overall condition of the animal as well as body-weight changes of the mice (FIG. 22).

NCI-N87 cells = assay: Dose-matrix combination assay (synergy score, Loewe model); type: cell-based; conditions: NCI-N87
Protocol: (§10) Dose-matrix combination assays were performed as described above, but performed in opague 384-well plates (2k viable cells/well). Compounds were added using Tecan D300e liquid. Protein solutions were supplemented with 0.3% Tween-20 (final) and diluted to 1 μM. All wells were normalized to the maximum amount of DMSO (maximum 0.4%) or Tween-20 added. Read out of luminescence was performed on Envision 2104 Multilabel Reader (Perkin Elmer) and data were evaluated using Genedata Screener® version 14.0.6-Standard (Genedata AG). Luminescence values were normalized to luminescence of non-treated cells and dose-response was fitted using Smart Fit. Synergy scores were calculated using LOEWE synergy model.
as §6

MDA-MB-453 cells [7] = assay: as above; type: cell-based; conditions: MDA-MB-453
Protocol: as §10, §6

For `C[C@@H]1COCCN1c1cc(C2(S(C)(=N)=O)CC2)nc(-c2ccnc3[nH]ccc23)n1` (stereo partly drawn) [AZD6738, 4-{4-[(3R)-3-methylmorpholin-4-yl]-6-[1-(S-methylsulfonimidoyl)cyclopropyl]pyrimidin-2-yl}-1H-pyrrolo[2,3-b]pyridine], the “tumor response (tumor volume)” value (NCI-N87 xenografts) was “not statistically different from the vehicle-treated group”, the “MNED (maximum non-efficacious dose)” value (SK-BR-3 cells) was 150 nM and the “MNED (maximum non-efficacious dose)” value (MDA-MB-468 cells [1]) was 300 nM. For the same compound, the “MNED (maximum non-efficacious dose)” value (MDA-MB-361 cells) was 111 nM, the “MNED (maximum non-efficacious dose)” value (JIMT-1 cells) was 80 nM and the “MNED (maximum non-efficacious dose)” value (SK-OV-3 cells) was 150 nM. The “MNED (maximum non-efficacious dose)” value (BT-474 cells) was 1000 nM, the “MNED (maximum non-efficacious dose)” value (HCC-1954 cells [2]) was 250 nM and the “MNED (maximum non-efficacious dose)” value (Calu-3 cells) was 400 nM. The “MNED (maximum non-efficacious dose)” value (MDA-MB-453 cells [3]) was 111 nM, the “Synergy score S” value (MDA-MB-468 cells [4]) was 5.7±1.0 and the “Synergy score S” value (HCC-1954 cells [5]; HCC-1954, 6 d, S ± SD, cutoff ±1) was 6.9±0.7. For the same compound, the “Synergy score S” value (HCC-1954 cells [5]; cell line not given (screen on HCC-1954 or MDA-MB-468)) was 7.6, the “additional cancer cells killed versus additive (Loewe) prediction” value (HCC-1954 cells [5]; hotspot 160 to 630 nM AZD6738 and 0.16 to […] DUBA) was “up to 69%” and the “tolerability (conclusion)” value [6] was “well tolerated”. For the same compound, the “Synergy score S” value (NCI-N87 cells; combination with ADC αHER2-2) was 3.7±0.7, the “Synergy score S” value (NCI-N87 cells; combination with ADC αHER2-6) was 3.0±0.05 and the “Synergy score S” value (MDA-MB-453 cells [7]; combination with ADC αHER2-2) was 9.1±2.1. For the same compound, the “Synergy score S” value (MDA-MB-453 cells [7]; combination with ADC αHER2-6) was 9.5±0.9.
